In assay [1] the target is T1, Acetyl-CoA Hydrolase from S. cerevisiae (Saccharomyces cerevisiae, UniProt P32316).
T1 sequence (P32316 1-526): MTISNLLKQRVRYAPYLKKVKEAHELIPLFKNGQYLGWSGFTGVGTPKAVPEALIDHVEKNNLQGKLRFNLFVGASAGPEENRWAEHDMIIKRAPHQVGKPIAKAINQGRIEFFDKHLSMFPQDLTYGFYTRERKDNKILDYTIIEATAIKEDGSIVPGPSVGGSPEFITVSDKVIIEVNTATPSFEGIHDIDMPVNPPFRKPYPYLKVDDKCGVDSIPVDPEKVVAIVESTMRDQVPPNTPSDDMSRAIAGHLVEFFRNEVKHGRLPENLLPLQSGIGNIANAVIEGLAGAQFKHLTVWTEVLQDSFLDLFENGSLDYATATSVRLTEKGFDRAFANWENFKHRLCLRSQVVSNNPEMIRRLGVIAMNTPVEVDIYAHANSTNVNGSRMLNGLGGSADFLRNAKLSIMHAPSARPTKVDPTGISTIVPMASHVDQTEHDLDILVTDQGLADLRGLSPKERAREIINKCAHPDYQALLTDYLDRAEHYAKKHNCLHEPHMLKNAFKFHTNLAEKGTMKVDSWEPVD
The assay can be described thus: biochemical. Type of assay: biochemical. The conditions noted are these: for remaining activity at 10000 µM / remaining activity at 500 µM / remaining activity at 5000 µM / remaining activity at 1000 µM: read-out: Enzyme Activity (%).

The target in assay [2] is T2, soluble cytosolic acetyl-CoA hydrolase found in rat liver (Rattus norvegicus, UniProt Q99NB7).
T2 construct: host or cells: rat liver cytoplasm (Prass et al. 1980; Soling et al. 1985)
The conditions noted are these: rat liver cytoplasmic, cold-labile enzyme; cited from earlier work.

Assay [3] addresses T1, Acetyl-CoA Hydrolase from S. cerevisiae. Put plainly: biochemical. The conditions noted are these: for remaining activity at 100 µM / remaining activity at 1000 µM / remaining activity at 10000 µM / remaining activity at 5000 µM: pH 7.4, read-out: Enzyme Activity (%); for Enzyme Activity (%): 100 mM potassium phosphate, pH 7.4, None = 100.
Protocol: The assay mixture was incubated at 30° C. for 0.30 s, 1 min, 2 min, 3 min, 4 min, and 5 min. The reaction was stopped by adding 20 μl of 10 M acetic acid. The sample was evaporated by N2 stream at 30° C. to dryness in a fume hood, dissolved in 100 μl H2 O, and transferred to a scintillation vial containing 10 ml Ready-Solv EP scintillation cocktail. The sample tube was washed twice with 100 μl H2 O, each wash was transferred to the scintillation vial, and the radioactivity was determined by scintillation counting for 1 min.
nucleotides and divalent cations in 100 mM potassium phosphate, pH 7.4.
The enzyme activity was determined under standard radioactive assay
conditions using ACTH (1-24) (N = 3), as described in the Examples.
acylCoA in 100 mM phosphate buffer, pH 7.4.
Assay [4] relates to mitochondrial acetyl-CoA hydrolase. The conditions noted are these: cited from earlier work.
The target in assay [5] is T1, Acetyl-CoA Hydrolase from S. cerevisiae. The assay can be described thus: Substrate specificity, colorimetric assay (DNTB, A412). Type of assay: biochemical. The conditions noted are these: read-out: Relative Activity (%).

Where “and” joins values, the source holds several entries; their conditions need not be identical. Identical values can stand only once. Entries after “also recorded” stand apart in the source; their conditions may differ. Like-named read-outs stand apart in the source and are kept apart here.

T2 sequence (Q99NB7 whole entry): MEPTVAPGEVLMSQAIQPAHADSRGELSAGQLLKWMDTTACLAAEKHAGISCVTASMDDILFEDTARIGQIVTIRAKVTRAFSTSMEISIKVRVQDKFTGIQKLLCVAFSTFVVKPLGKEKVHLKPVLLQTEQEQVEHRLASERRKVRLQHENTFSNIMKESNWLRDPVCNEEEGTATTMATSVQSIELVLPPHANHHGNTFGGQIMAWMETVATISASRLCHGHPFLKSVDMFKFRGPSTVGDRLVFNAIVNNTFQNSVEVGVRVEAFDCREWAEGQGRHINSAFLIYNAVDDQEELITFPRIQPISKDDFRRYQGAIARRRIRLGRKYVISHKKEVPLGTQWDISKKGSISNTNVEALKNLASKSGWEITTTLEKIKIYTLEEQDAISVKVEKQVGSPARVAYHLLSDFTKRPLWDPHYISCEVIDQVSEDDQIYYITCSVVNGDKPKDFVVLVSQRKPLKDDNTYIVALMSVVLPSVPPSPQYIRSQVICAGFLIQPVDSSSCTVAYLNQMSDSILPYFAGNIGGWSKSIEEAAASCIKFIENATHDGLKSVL

For the compound `O[C@@H](CS)[C@@H](O)CS` (relative stereo) [DTT], the “inactivation by chemical modification (in words)” value in assay [1] was “did not affect enzyme activity”. The remaining activity at 10000 µM in assay [1] (0.25 h) is 104%.

As to `OCCS` [2-mercaptoethanol], the “inactivation by chemical modification (in words)” value in assay [1] is on record as “did not affect enzyme activity”. For the same compound, the remaining activity at 10000 µM in assay [1] (0.25 h) came out at 101%.

As for `Nc1ncnc2c1ncn2[C@@H]1O[C@H](COP(=O)(O)OP(=O)(O)O)[C@@H](O)[C@H]1O` [ADP], in assay [2], the “effect on enzyme (in words)” value is recorded as “inhibited”. Also, in assay [3], the “effect on yeast enzyme activity (in words)” value was “not affected”, the remaining activity at 100 µM was found to be 98%, the remaining activity at 1000 µM amounted to 94% and the remaining activity at 10000 µM is 91%. Besides, the “effect on enzyme (in words)” value in assay [4] is listed as “not inhibited; also recorded: not affected”.

Turning to `Nc1ncnc2c1ncn2[C@@H]1O[C@H](COP(=O)(O)O)[C@@H](O)[C@H]1O` [AMP], in assay [3], the remaining activity at 100 µM worked out at 96%, the remaining activity at 1000 µM came to 89% and the remaining activity at 10000 µM turned out to be 81%.

For the compound `Nc1ncnc2c1ncn2[C@@H]1O[C@H](COP(=O)(O)OP(=O)(O)OP(=O)(O)O)[C@@H](O)[C@H]1O` [ATP], in assay [3], the “effect on yeast enzyme activity (in words)” value is “not affected”, the remaining activity at 100 µM amounted to 101%, the remaining activity at 1000 µM was 99% and the remaining activity at 10000 µM is 96%. The “effect on enzyme (in words)” value in assay [4] is given as “not activated; also recorded: not affected”.

As to `CC(=O)CC(=O)SCCNC(=O)CCNC(=O)[C@H](O)C(C)(C)COP(=O)(O)OP(=O)(O)OC[C@H]1O[C@@H](n2cnc3c(N)ncnc32)[C@H](O)[C@@H]1OP(=O)(O)O` [Acetoacetyl-CoA], the activity at 250 µM in assay [5] worked out at 5%. In assay [3], the remaining activity at 100 µM is 98%, the remaining activity at 1000 µM turned out to be 92% and the remaining activity at 5000 µM was determined as 90%.

`CCCC(=O)SCCNC(=O)CCNC(=O)[C@H](O)C(C)(C)COP(=O)(O)OP(=O)(O)OC[C@H]1O[C@@H](n2cnc3c(N)ncnc32)[C@H](O)[C@@H]1OP(=O)(O)O` [Butyryl-CoA]: in assay [5], the activity at 250 µM is 4%. In addition, in assay [3], the remaining activity at 100 µM worked out at 95%, the remaining activity at 1000 µM is 86% and the remaining activity at 5000 µM was 62%.

Take `[Ca+2].[Cl-].[Cl-]` [CaCl2]: the entries for the “Enzyme Activity (%)” value in assay [3] (addition 1 mM) and in assay [3] (addition 10 mM) were 97% and 84%, respectively.

For `[Cl][Cd][Cl]` [CdCl2], the entries for the “Enzyme Activity (%)” value in assay [3] (addition 1 mM) and in assay [3] (addition 10 mM) were 91% and 48%, respectively.

For `[Cl-].[Cl-].[Co+2]` [CoCl2], the “Enzyme Activity (%)” value in assay [3] (addition 1 mM) worked out at 86%; in assay [3] (addition 10 mM), 51%.

As to `O=S(=O)([O-])[O-].[Cu+2]` [CuSO4], the “Enzyme Activity (%)” value is given as 94% in assay [3] (addition 1 mM) and 89% in assay [3] (addition 10 mM).

For the compound `CCOC(=O)OC(=O)OCC` [DEPC, diethyl pyrocarbonate], the “inactivation by chemical modification (in words)” value in assay [1] was “nearly complete inactivation; also recorded: inactivated”. In assay [1] (0.25 h), the remaining activity at 500 µM worked out at 19% and the remaining activity at 5000 µM is 3%.

Take `O=S(=O)([O-])[O-].[Fe+2]` [FeSO4]: the figures for the “Enzyme Activity (%)” value in assay [3] (addition 1 mM) and in assay [3] (addition 10 mM) were 98% and 88%, respectively.

As to `Nc1nc2c(ncn2[C@@H]2O[C@H](COP(=O)(O)OP(=O)(O)O)[C@@H](O)[C@H]2O)c(=O)[nH]1` [GDP], the “effect on enzyme (in words)” value in assay [2] is “inhibited”; in assay [4], “not inhibited”.

`C[S+](C)Cc1cc([N+](=O)[O-])ccc1O.[Br-]` [HNBS(CH3)2 --Br, dimethyl-(2-hydroxy-5-nitrobenzyl)sulfonium bromide]: the “inactivation by chemical modification (in words)” value in assay [1] is “partially inactivated”. Besides, in assay [1] (0.25 h), the remaining activity at 1000 µM was 84% and the remaining activity at 10000 µM turned out to be 71%.

Regarding `O=C(O)CI` [IAA, iodoacetic acid], in assay [1] (0.25 h), the remaining activity at 1000 µM stood at 99% and the remaining activity at 10000 µM turned out to be 89%.

As to `NC(=O)CI` [IAM, iodoacetamide], the “effect on enzyme activity (in words)” value in assay [1] was “no effect; also recorded: partially inactivated”. Besides, in assay [1] (0.25 h), the remaining activity at 1000 µM came to 97% and the remaining activity at 10000 µM is 85%.

On to `CC(C)(COP(=O)(O)OP(=O)(O)OC[C@H]1O[C@@H](n2cnc3c(N)ncnc32)[C@H](O)[C@@H]1OP(=O)(O)O)[C@@H](O)C(=O)NCCC(=O)NCCSC(=O)CC(=O)O` [Malonyl-CoA], for which, in assay [5], the activity at 250 µM turned out to be 1%. In addition, in assay [3], the remaining activity at 100 µM worked out at 93%, the remaining activity at 1000 µM amounted to 83% and the remaining activity at 5000 µM worked out at 52%.

As for `[Cl-].[Cl-].[Mg+2]` [MgCl2], the results for the “Enzyme Activity (%)” value in assay [3] (addition 1 mM) and in assay [3] (addition 10 mM) were 95% and 72%, respectively.

For the compound `O=S(=O)([O-])[O-].[Mg+2]` [MgSO4], the figures for the “Enzyme Activity (%)” value in assay [3] (addition 1 mM) and in assay [3] (addition 10 mM) were 98% and 75%, respectively.

As for `[Cl][Mn][Cl]` [MnCl2], the entries for the “Enzyme Activity (%)” value in assay [3] (addition 1 mM) and in assay [3] (addition 10 mM) were 84% and 64%, respectively.

With `CCCCCCCCCCCCCC(=O)SCCNC(=O)CCNC(=O)[C@H](O)C(C)(C)COP(=O)(O)OP(=O)(O)OC[C@H]1O[C@@H](n2cnc3c(N)ncnc32)[C@H](O)[C@@H]1OP(=O)(O)O` [Myristoyl-CoA], the activity at 250 µM in assay [5] stood at 3%. For the same compound, in assay [3], the remaining activity at 100 µM came out at 93%, the remaining activity at 1000 µM came to 83% and the remaining activity at 5000 µM came out at 52%.

In the case of `CC(=O)n1ccnc1` [N-acetylimidazole], the “effect on enzyme activity (in words)” value in assay [1] is “caused inactivation”. Besides, in assay [1] (0.25 h), the remaining activity at 1000 µM came to 101% and the remaining activity at 10000 µM turned out to be 67%.

As for `O=C1CCC(=O)N1Br` [NBS, N-bromosuccinimide], the “inactivation of the enzyme (in words)” value in assay [1] is “complete inactivation”. Besides, in assay [1] (0.25 h), the remaining activity at 500 µM turned out to be 30% and the remaining activity at 5000 µM came out at 2%. In assay [1] (0.25 h, read-out: inactivation of the enzyme), the inhibition at 500 µM turned out to be 70%.

As to `CCN1C(=O)C=CC1=O` [NEM, N-ethylmaleimide], in assay [1] (0.25 h), the remaining activity at 1000 µM was 94% and the remaining activity at 10000 µM was 52%.

`CCC(=O)SCCNC(=O)CCNC(=O)[C@H](O)C(C)(C)COP(=O)(O)OP(=O)(O)OC[C@H]1O[C@@H](n2cnc3c(N)ncnc32)[C@H](O)[C@@H]1OP(=O)(O)O` [Propionyl-CoA]: the activity at 250 µM in assay [5] is 9%. Also, in assay [3], the remaining activity at 100 µM is 92%, the remaining activity at 1000 µM is 89% and the remaining activity at 5000 µM was 72%.

For `O=C1CCC(=O)O1` [Succinic anhydride], the “effect on enzyme activity (in words)” value in assay [1] was “no effect; also recorded: partial inactivation”. In addition, in assay [1] (0.25 h), the remaining activity at 1000 µM was 95% and the remaining activity at 10000 µM was determined as 79%.

Turning to `CC(C)(COP(=O)(O)OP(=O)(O)OC[C@H]1O[C@@H](n2cnc3c(N)ncnc32)[C@H](O)[C@@H]1OP(=O)(O)O)[C@@H](O)C(=O)NCCC(=O)NCCSC(=O)CCC(=O)O` [Succinyl-CoA], the activity at 250 µM in assay [5] was 8%. Moreover, in assay [3], the remaining activity at 100 µM came out at 92%, the remaining activity at 1000 µM was determined as 79% and the remaining activity at 5000 µM amounted to 56%.

Consider `O=S(=O)([O-])[O-].[Zn+2]` [ZnSO4], for which the “Enzyme Activity (%)” value turned out to be 88% in assay [3] (addition 1 mM) and 25% in assay [3] (addition 10 mM).

On to `[Zn+2]` [Zn^2+], for which the “effect on yeast enzyme activity (in words)” value in assay [3] (concentration not given) was “most potent inhibitor”.

Turning to `NO` [hydroxylamine], the “original enzyme activity recovered” value in assay [1] (depc-inactivated acetyl-coa hydrolase, 480 min, 250000 µM) was “≈ 55%”.

Turning to `O=C(O)c1cc[c]([Hg][Cl])cc1` [pCMB, p-chloromercuribenzoate], in assay [1], the “Enzyme Activity (%)” value was 102% and 88%.

For `NC(=O)C1=CN([C@@H]2O[C@H](COP(=O)(O)OP(=O)(O)OC[C@H]3O[C@@H](n4cnc5c(N)ncnc54)[C@H](O)[C@@H]3O)[C@@H](O)[C@H]2O)C=CC1` [βNADH], in assay [3], the “effect on enzyme activity (in words)” value was “appreciably decreased enzyme activity”, the “effect on yeast enzyme activity (in words)” value was “inhibited”, the remaining activity at 100 µM stood at 83% and the remaining activity at 1000 µM stood at 69%. Also, the remaining activity at 10000 µM in assay [3] came to 46%. In addition, the “effect on enzyme (in words)” value in assay [4] was “inhibited”.

As for `NC(=O)C1=CN([C@@H]2O[C@H](COP(=O)(O)OP(=O)(O)OC[C@H]3O[C@@H](n4cnc5c(N)ncnc54)[C@H](OP(=O)(O)O)[C@@H]3O)[C@@H](O)[C@H]2O)C=CC1` [βNADPH], in assay [3], the remaining activity at 100 µM stood at 99%, the remaining activity at 1000 µM came to 98% and the remaining activity at 10000 µM was 96%.

As for `NC(=O)c1ccc[n+]([C@@H]2O[C@H](COP(=O)([O-])OP(=O)(O)OC[C@H]3O[C@@H](n4cnc5c(N)ncnc54)[C@H](O)[C@@H]3O)[C@@H](O)[C@H]2O)c1` [βNAD], in assay [3], the remaining activity at 100 µM was found to be 100%, the remaining activity at 1000 µM amounted to 98% and the remaining activity at 10000 µM was determined as 95%.

The values are drawn from US5487990A (The General Hospital Corporation, priority 1992, dated 1996).
